Values quoted from earlier work, collected in US20210361600A1, “METHODS FOR INDUCING CHONDROGENESIS” (THE SCRIPPS RESEARCH INSTITUTE, priority 2017, published 2021).

How the values were obtained:
FLNA FC-1 fragment = details: previously validated with BKA affinity probe; cited from earlier work
CBFβ = details: previously demonstrated; cited from earlier work

O=C(O)c1ccccc1C(=O)Nc1ccc(-c2ccccc2)cc1 [KGN, kartogenin]
binding to FC-1 fragment of FLNA (FLNA FC-1 fragment): directly mediate the binding
nuclear localization of CBFβ (CBFβ): increase the nuclear localization of CBFβ
